Patent publication US20080221361A1, “Ionic Liquids” (BIONIQS LIMITED, priority 2005, published 2008)

Key:
Type in all cases: physicochemical
Details in all cases: product dried to water content between about 0.2 and 1% w/w
[1] = Viscosity, AND SV10 vibrational viscometer
Experimental: (§1) Where the starting materials were both liquids, no solvent was used for the synthesis. Viscosities were measured using an AND™ SV10 vibrational viscometer. Refractive indices were obtained using a Mettler Toledo Refracto™ 30 portable refractometer. Densities were measured simply by determining the mass of a measured volume of the liquid. All products were dried prior to characterisation, to a water content of between about 0.2 and 1% w/w.

[2] = Refractive index, Mettler Toledo Refracto 30 portable refractometer
Experimental: as §1

[3] = Density, mass of a measured volume of the liquid
Experimental: as §1

Molecule	Viscosity at 25° C. (centipoise) (error ± ~5%) [1]	Refractive index (error ± ~2%) [2]	Density (g/cm^3) (error ± ~2%) [3] [g/mL]
CC(=O)O.COCCCN [3-methoxypropylammonium acetate]	640	1.447	1.04
COCCCN.O=C(O)CO [3-methoxypropylammonium glycolate]	2670	1.470	1.17
CC(=O)O.CCN(CC)CCO [N,N-diethylethanolammonium acetate]	55	1.453	1.00
CCN(CC)CCO.O=CO [N,N-diethylethanolammonium formate]	395	1.462	1.04
CCN(CC)CCO.O=C(O)CO [N,N-diethylethanolammonium glycolate]	740	1.466	1.11
CCCCCCCC(=O)O.CCN(CC)CCO [N,N-diethylethanolammonium octanoate]	46	1.451	0.96
CCC(=O)O.CCN(CC)CCO [N,N-diethylethanolammonium propionate]	42	1.450	0.98
CC(=O)O.CCN(CC)CC(O)CO (stereo not drawn) [N,N-diethylpropane-2,3-diolammonium acetate]	3100		
CC(=O)O.COCCN(C)C [N,N-dimethyl-2-methoxyethylammonium acetate]		1.426	
CCS(=O)(=O)O.COCCN(C)C [N,N-dimethyl-2-methoxyethylammonium ethanesulphonate]		1.449	
COCCN(C)C.O=C(O)CO [N,N-dimethyl-2-methoxyethylammonium glycolate]		1.459	
COCCN(C)C.CS(=O)(=O)O [N,N-dimethyl-2-methoxyethylammonium methanesulphonate]		1.449	
CCC(=O)O.COCCN(C)C [N,N-dimethyl-2-methoxyethylammonium propionate]		1.422	
COCCN(C)C.NS(=O)(=O)O [N,N-dimethyl-2-methoxyethylammonium sulphamate]		1.472	
CC(=O)O.CN(C)CCOCCO [N,N-dimethyl-N-[(2-hydroxyethoxy)ethyl]ammonium acetate]	48	1.45	1.05
CC(=O)O.CN(C)CCCO [N,N-dimethylpropanolammonium acetate]	77	1.451	1.03

Molecule	Viscosity at 25° C. (centipoise) (error ± ~5%) [1]	Refractive index (error ± ~2%) [2]	Density (g/cm^3) (error ± ~2%) [3] [g/mL]
CN(C)CCCO.O=CO [N,N-dimethylpropanolammonium formate]	132	1.460	1.07
CN(C)CCCO.O=C(O)CO [N,N-dimethylpropanolammonium glycolate]	3320	1.472	1.14
CCC(=O)O.CN(C)CCCO [N,N-dimethylpropanolammonium propionate]	52	1.441	0.99
CC(=O)O.CCCCNCCO [N-butylethanolammonium acetate]	365	1.455	1.04
CCCCNCCO.O=CO [N-butylethanolammonium formate]	376	1.462	1.04
CCCCNCCO.O=C(O)CO [N-butylethanolammonium glycolate]	800	1.464	1.08
CCCCCCCC(=O)O.CCCCNCCO [N-butylethanolammonium octanoate]	388	1.456	
CCC(=O)O.CCCCNCCO [N-butylethanolammonium propionate]		1.457	1.00
CC(=O)O.COCCN(C)CCOC [N-methyl-bis(2-methoxyethyl)ammonium acetate]		1.423	
COCCN(C)CCOC.O=C(O)CO [N-methyl-bis(2-methoxyethyl)ammonium glycolate]		1.452	
CCC(=O)O.COCCN(C)CCOC [N-methyl-bis(2-methoxyethyl)ammonium propionate]		1.423	
CC(=O)O.CCCNCCO [N-propylethanolammonium acetate]	1310	1.459	1.04
CCC(=O)O.CCCNCCO [N-propylethanolammonium propionate]	483	1.456	1.02
N,N-dimethyl-2-methoxyethylammonium octanoate	13.5	1.429	0.93
N-methyl-bis(2-methoxyethyl)ammonium octanoate		1.431	
